Results: patent publication US11066455B2, “Tmem100 peptides and variants thereof and their use in treating or preventing diseases or conditions” (The Johns Hopkins University, priority 2014, dated 2021)
pEC50: −log10 of the molar value. Entries after “also recorded” stand apart in the source; their conditions may differ. Where two headings read alike, the source gives them in different places. Peptide text beside a SMILES is read from it. * marks the point of attachment. Myristoyl = CCCCCCCCCCCCCC(=O)*

What was measured:
TRPA1 [1] = system: T1, TRPA1; assay: Calcium imaging of HEK293T cells expressing TRPA1 and TRPV1 (MO or CA); type: cell-based
T1 construct: percentage of cells responsive to CA; other: shortened CPP 2 μM; CA 10 μM; HEK293 TRPA1+TRPV1; vs scrambled; percentage of cells responsive to MO; other: peptide 200 nM pre-treatment; 500 nM MO; HEK293T TRPA1+TRPV1; percentage of cells that respond to 100 nM MO and 10 μM CA; other: HEK293T TRPA1+TRPV1, Tmem100-3Q-transfected vs lacki; reduction in the percentage of cells responding to MO
Protocol: (§1) Calcium imaging assays were performed as previously described (Liu et al., 2009). Cells were loaded with 2 μM fura 2-acetomethoxy ester (Molecular Probes) for 30 min in the dark at room temperature or for 45 minutes at 37° C. for DRG and cell lines, respectively. After washing, cells were imaged at 340 and 380 nm excitation to detect intracellular free calcium under a fluorescent microscope (Nikon Eclipse TE2000-S) and Lambda 10B shutter (Sutter Instrument). The cells were bathed in calcium imaging buffer (pH 7.45, 130 mM NaCl, 3 mM KCl, 2.5 mM CaCl2, 10 mM HEPES, 10 mM glucose, 1.2 mM NaHCO3, with sucrose to increase osmolarity to 290 mOsm). The reagents and buffers were applied through a gravity perfusion system at a rate of […], including mustard oil (Sigma 377430), cinnamaldehyde (Sigma C80687), menthol (Sigma M2780), and capsaicin (Sigma M2028). Cells with high baseline 340/380 values (>1.5) were excluded for analysis. For DRG neurons, IB4 staining was performed in the chamber with the dilution of 1:200 (Molecular Probes 121412) for 160 seconds before washing off at the end of each test. Images were processed and analyzed with NIS-Elements BR 2.30 software (Nikon). A responsive cell was defined as one that with greater than a 20% increase in the 340/380 ratio above the baseline. Intracellular calibration for calcium was performed as previously described (Akopian et al., 2007). The data was analyzed with the experimenter blinded to the genotypes or constructs transfected.
(§2) DRG from 3 to 4-week old mice were collected in cold DH10 medium (90% DMEM/F-12, 10% FBS, 100 U/ml penicillin, and 100 μg/ml Streptomycin, Gibco) and treated with enzyme solution in HBSS containing collagenase (1.65 mg/mL, Worthington CLS I) and dispase (3.55 mg/mL, GIBCO 17105-041) at 37° C. for 30 minutes. After trituration and centrifugation, cells were resuspended in DH10, plated on glass coverslips coated with poly-D-lysine (0.5 mg/ml, Stoughton, Mass.) and laminin (10 μg/ml, Invitrogen), and cultured overnight in an incubator at 37° C. The neurons were tested within 24 hours. HEK293T, COS-7, and CHO cells were cultured in a medium consisting of 90% DMEM, 10% FBS, 100 U/mL penicillin, and 100 μg/ml Streptomycin. GlutaMAX (Gibco 35050-061) was also added for CHO cells. For calcium imaging, the cells were plated on glass coverslips coated with poly-D-lysine (0.5 mg/ml, Stoughton, Mass.). In the HEK cell studies the denominator is the cells expressing both TRPA1, TRPV1, and the designated constructs (i.e. Tmem100 or Tmem100-3Q mutant). mCherry:TRPV1:Tmem100 was transfected in 1:8:8 ratio into TRPA1 stable cell line (obtained from N. Tigue from GlaxoSmithKline) and used mCherry as the marker for the cells expressing the constructs 18 hours after transfection with Lipofectamine 2000. The transfection efficiency for Tmem100+TRPV1+TRPA1 triple-positive cells is 27±3%. This efficiency was determined by mCherry(+) divided by total number of cells in the bright fields.
(§3) The sequence from the last 28 amino acids of the C-terminus of the Tmem100-3Q mutant protein was synthesized and myristoylated at its N-terminus (myr-[…]-COOH) (SEQ ID NO: 8) by Twentyfirst Century Biochemicals. […] For the calcium imaging assay, the peptides were added to the calcium imaging buffer with a final concentration of 200 nM and incubated for at least […] at room temperature. For the mice behavioral assays, the peptides (5 μL, 2 mM) were injected subcutaneously in the hindpaw at least 30 minutes before testing. For the rat behavior assays, human T100-3Q (h-T100), a palmitoylated cell permeable peptide mutated based on the C terminus of human sequence in Tmem100, was applied. The sequence is Palmitoyl-[…]-COOH (SEQ ID NO: 7).

[2] = system: paclitaxel (Taxol)-induced mechanical hyperalgesia in wild-type mice; assay: Paclitaxel-induced mechanical hyperalgesia; type: in vivo, mouse; conditions: day 7 post paclitaxel; intradermal injection of T100-Mut
Protocol: (§4) Mice were placed in a transparent plastic box (4.5×5×10 cm) on a metal mesh and acclimatized for 30 minutes prior to testing. Each mouse was tested more than 5 times at a specific force manually, and the threshold was determined by the lowest force needed to elicit responses more than 50% of the time.
Mice were injected with paclitaxel (Sigma T7191) intraperitoneally at the dose of 6 mg/kg, as previously described (Materazzi et al., 2012). Seven days after paclitaxel injection, the mice were assayed with Von Frey methods for mechanical hyperalgesia, both before and four hours after injection of cell permeable peptides.

[3] = system: MO-induced pain in TRPV1-/- mice; assay: Mustard oil injection in TRPV1-/- mice; type: in vivo, mouse
Protocol: as §4
Mice were injected intradermally in the hind paw with 6 μL of 0.2% mustard oil (Sigma-Aldrich 377430) with Hamilton needles (80300). The mice were placed in a plexiglass cylinder, and the total time spent licking and flinching was recorded for the first 10 minutes after injection. Thirty and sixty minutes after injection, the mice were assayed with von Frey filaments for mechanical hyperalgesia.
The sequence from the last 28 amino acids of the C-terminus of the Tmem100-3Q mutant protein was synthesized and myristoylated at its N-terminus (myr-[…]-COOH) (SEQ ID NO: 8) by Twentyfirst Century Biochemicals. […] For the calcium imaging assay, the peptides were added to the calcium imaging buffer with a final concentration of 200 nM and incubated for at least […] at room temperature. For the mice behavioral assays, the peptides (5 μL, 2 mM) were injected subcutaneously in the hindpaw at least 30 minutes before testing. For the rat behavior assays, human T100-3Q (h-T100), a palmitoylated cell permeable peptide mutated based on the C terminus of human sequence in Tmem100, was applied. […]

[4] = system: neuropathic mechanical hypersensitivity in SNL rats; type: in vivo, rat
Source text: An modified L5 SNL model was produced as described in previously (He et al., 2014; Shechter et al., 2013). Male Sprague-Dawley rats (200-350 g, Harlan, Indianapolis, Ind.) were anesthetized with 2% isoflurane. The left L5 spinal nerve was ligated with a 6-0 silk suture and cut distally. The muscle layer was closed with 4-0 chromic gut suture and the skin closed with metal clips. For intrathecal catheter implantation, a small slit was cut in the atlanto-occipital membrane of rats, into which a saline-filled piece of PE-10 tubing (6-7 cm) was inserted (He et al., 2014). […] Hypersensitivity to punctuate mechanical stimulation was determined with the up-down method by using a series of von Frey filaments (0.38-15.1 g) applied for 4-6 seconds to the test area on the plantar surface of the hindpaw (Chaplan et al., 1994; He et al., 2014). The PWT was determined according to the formula provided by Dixon (Dixon, 1980). […] HC-030031 was purchased from Tocris Bioscience (Bristol, UK). Both drugs were dissolved in 10% dimethylsulfoxide (DMSO), 5% Tween 80 and 85% sterile saline solution. The final working solution which was injected by intrathecal route contained <1% DMSO. The number of animals used in each study was based on experience with similar studies and power analysis calculations. Animals were randomized to the different treatment groups and blinded the experimenter to drug treatment to reduce selection and observation bias. After the experiments were completed, no data point was excluded. STATISTICA 6.0 software (StatSoft, Inc., Tulsa, Okla.) was used to conduct all statistical analyses. The Tukey honestly significant difference (HSD) post-hoc test was used to compare specific data points. Bonferroni correction was applied for multiple comparisons. Two-tailed tests were performed, and data are expressed as mean±SEM; P<0.05 was considered significant in all tests.
as §3

[5] = system: ongoing neuropathic pain in SNL rats; assay: Conditioned place preference test for ongoing pain in SNL rats; type: in vivo, rat; conditions: i.p.
Source text: Ongoing, or spontaneous, pain, which is most bothersome to patients, is difficult to treat and difficult to study in animals. The conditioned place preference test has been successfully developed to reveal the presence of non-evoked, ongoing pain and pain relief based on the preference of an animal for the context paired with a pain-relief treatment. The conditioned place preference can also capture the aversive aspects of pain. Strikingly, many studies have shown that the rodent conditioned place preference test accurately reflects the effectiveness of human clinical treatments. Therefore, this test is a powerful approach to investigate the potential effectiveness of new treatments and mechanisms for relief of ongoing pain. Two previous studies have examined the role of TRPA1 in ongoing pain by the conditioned place preference test. […] Because the antagonists used in those studies (HC030031 and Chem5861528) target TRPA1 monomers, it is possible that T100-Mut can inhibit ongoing pain by modulating the TRPA1/V1 complex. This possibility was tested in rodents with SNL-induced ongoing pain using the conditioned place preference test. […] Systemic administration of gabapentin, an analgesic that is known to alleviate neuropathic pain, was used as a positive control (FIG. 16B).

TRPA1 [6] = target: T2, TRPA1 (UniProt O75762); assay: Calcium imaging of HEK293T cells expressing TRPA1 and TRPV1 (MO or CA); type: cell-based
T2 construct: other: cells expressing A1+V1; other: cells expressing A1+V1+Tmem100
Protocol: as §1, §2, §3

[7] = target: TRPA1 (expressed in heterologous cells: CHO, HEK293T); assay: cell-based or functional assay
Chain of TRPA1 (expressed in heterologous cells: CHO, HEK293T) (Q8BLA8 whole entry): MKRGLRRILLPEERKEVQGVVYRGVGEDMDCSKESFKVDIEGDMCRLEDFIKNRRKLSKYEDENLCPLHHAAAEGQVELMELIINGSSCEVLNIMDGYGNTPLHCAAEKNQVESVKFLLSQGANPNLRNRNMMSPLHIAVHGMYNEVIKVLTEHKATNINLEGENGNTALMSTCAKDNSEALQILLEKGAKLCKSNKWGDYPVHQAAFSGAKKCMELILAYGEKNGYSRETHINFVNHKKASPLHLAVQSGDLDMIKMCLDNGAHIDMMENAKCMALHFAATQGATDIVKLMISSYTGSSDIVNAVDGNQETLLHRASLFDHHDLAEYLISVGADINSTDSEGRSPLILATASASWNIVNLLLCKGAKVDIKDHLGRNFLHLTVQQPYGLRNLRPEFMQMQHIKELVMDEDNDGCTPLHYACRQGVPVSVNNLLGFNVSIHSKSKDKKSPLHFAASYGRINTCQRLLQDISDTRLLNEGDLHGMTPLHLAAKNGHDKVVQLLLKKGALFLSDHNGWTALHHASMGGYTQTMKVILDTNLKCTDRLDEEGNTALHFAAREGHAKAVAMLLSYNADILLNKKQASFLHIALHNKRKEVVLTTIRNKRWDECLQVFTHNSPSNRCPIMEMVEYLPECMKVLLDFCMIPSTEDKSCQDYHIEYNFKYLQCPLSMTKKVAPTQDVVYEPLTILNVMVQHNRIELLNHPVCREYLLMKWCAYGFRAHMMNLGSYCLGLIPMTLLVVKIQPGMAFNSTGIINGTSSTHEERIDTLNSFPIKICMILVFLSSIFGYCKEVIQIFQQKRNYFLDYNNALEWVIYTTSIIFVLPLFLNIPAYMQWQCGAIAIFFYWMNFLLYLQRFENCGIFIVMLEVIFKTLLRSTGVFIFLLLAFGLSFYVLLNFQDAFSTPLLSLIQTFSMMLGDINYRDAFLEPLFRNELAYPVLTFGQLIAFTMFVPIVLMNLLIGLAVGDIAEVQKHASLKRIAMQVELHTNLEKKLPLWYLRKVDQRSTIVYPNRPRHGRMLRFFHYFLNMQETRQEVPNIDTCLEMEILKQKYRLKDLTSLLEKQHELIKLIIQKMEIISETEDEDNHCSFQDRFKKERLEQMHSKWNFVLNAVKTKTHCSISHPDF

CCCCCCCCCCCCCC(=O)N[C@@H](Cc1c[nH]c2ccccc12)C(=O)N[C@@H](CCCCN)C(=O)N[C@H](C(=O)N[C@@H](CCCNC(=N)N)C(=O)N[C@@H](CCC(N)=O)C(=O)N[C@@H](CCCNC(=N)N)C(=O)N[C@@H](CC(N)=O)C(=O)N[C@@H](CCCCN)C(=O)N[C@@H](CCCCN)C(=O)N[C@H](C(=O)N[C@@H](CCC(N)=O)C(=O)N[C@@H](CCC(N)=O)C(=O)N[C@@H](CCC(N)=O)C(=O)N[C@@H](CCC(=O)O)C(=O)N[C@@H](CO)C(=O)N[C@@H](CCC(N)=O)C(=O)N[C@H](C(=O)N[C@@H](C)C(=O)N[C@@H](CC(C)C)C(=O)N[C@H](C(=O)N[C@H](C(=O)N[C@@H](CC(N)=O)C(=O)N[C@@H](CCC(N)=O)C(=O)N[C@@H](CCCNC(=N)N)C(=O)N[C@@H](CS)C(=O)N[C@@H](CC(C)C)C(=O)N[C@@H](Cc1ccccc1)C(=O)N[C@@H](C)C(=O)O)C(C)C)C(C)C)[C@@H](C)O)C(C)C)C(C)C [T100-Mut] (Myristoyl-WKVRQRNKKVQQQESQTALVVNQRCLFA-OH)
reduction in the percentage of cells responding to MO (TRPA1 [1]; heterologous system, T100-Mut treatment vs scrambled): 65%
percentage of cells responsive to MO (TRPA1 [1]; peptide 200 nM pre-treatment, 500 nM MO, HEK293T TRPA1+TRPV1): 6±2.4%
paclitaxel-induced mechanical hyperalgesia [2]: attenuated; also recorded: alleviated
MO-induced acute pain in TRPV1-/- mice [3]: did not perturb; also recorded: no effect
MO-induced mechanical hyperalgesia in TRPV1-/- mice [3]: did not perturb; also recorded: no effect
efficacy and potency of inhibiting neuropathic pain compared with HC-030031 ([4]; SNL rats, intrathecal): comparable or better efficacy and potency
pEC50 ([4]; rat, in vivo): 4.53

CC(C)c1ccc(NC(=O)Cn2cnc3c2c(=O)n(C)c(=O)n3C)cc1 [HC-030031, reference compound]
contralateral PWT after drug injection ([4]; intrathecal 10 μl): did not change significantly
ipsilateral paw withdrawal threshold (PWT) vs pre-drug ([4]; intrathecal 10 μl, h-T100 10-100 μM, HC-030031 10-200 μM, scrambled 100 μM): increased
pEC50 ([4]; intrathecal, 10 μl, SNL rats, read-out: EC50 for inhibiting pain): 4.24

NCC1(CC(=O)O)CCCCC1 [gabapentin, reference compound]
conditioned place preference: time in gabapentin-paired chamber, SNL rats ([5]; 60 mg/kg, saline-paired chamber as comparison): significantly increased
chamber preference in sham-operated rats ([5]; gabapentin 60 mg/kg, sham-operated): did not induce chamber preference

O=CC=Cc1ccccc1 [CA, cinnamaldehyde, reference compound]
pEC50 (TRPA1 [6]; cells expressing A1+V1): 4.24
pEC50 (TRPA1 [6]; cells expressing A1+V1+Tmem100): 4.68

TRPV1 (expressed in heterologous cells: CHO, HEK293T) (receptor)
MO (10 µM)-evoked Ca2+ influx, CHO cells, with Tmem100-3Q co-expressed (1:1:4) [7]: 321 nM
MO (10 µM)-gated whole-cell current density, CHO cells, with Tmem100-3Q co-expressed (1:1:4) [7]: 39.2 pA/pF
MO (10 µM)-induced single-channel activity (NPo), CHO cells, with Tmem100-3Q co-expressed (1:1:4) [7]: 0.16
MO (10 µM)-induced single-channel activity (NPo), CHO cells, with wild-type Tmem100 co-expressed (1:1:4) [7]: 1.05
